Assay results reported in ChEMBL document CHEMBL5241097, “Synthetically-tailored and nature-derived dual COX-2/5-LOX inhibitors: Structural aspects and SAR” (Eur J Med Chem, 2021).
pIC50: −log10 of the molar value. Converted amounts (≈) assume the structure as drawn.

Experiments:
[1] = system: DLD-1; assay: Anticancer activity against human DLD-1 cells assessed as cell growth inhibition incubated for 3 hrs by Sulforhodamine B assay; type: functional, cell-based; conditions: DLD-1, 3 h
[2] = system: MCF7; assay: Anticancer activity against human MCF7 cells assessed as cell growth inhibition incubated for 3 hrs by Sulforhodamine B assay; type: functional, cell-based; conditions: MCF7, 3 h
[3] = target: T1, Prostaglandin G/H synthase 2 (Homo sapiens, UniProt P35354); assay: Inhibition of COX-2 (unknown origin) by enzyme immune assay
T1 sequence (P35354 whole entry): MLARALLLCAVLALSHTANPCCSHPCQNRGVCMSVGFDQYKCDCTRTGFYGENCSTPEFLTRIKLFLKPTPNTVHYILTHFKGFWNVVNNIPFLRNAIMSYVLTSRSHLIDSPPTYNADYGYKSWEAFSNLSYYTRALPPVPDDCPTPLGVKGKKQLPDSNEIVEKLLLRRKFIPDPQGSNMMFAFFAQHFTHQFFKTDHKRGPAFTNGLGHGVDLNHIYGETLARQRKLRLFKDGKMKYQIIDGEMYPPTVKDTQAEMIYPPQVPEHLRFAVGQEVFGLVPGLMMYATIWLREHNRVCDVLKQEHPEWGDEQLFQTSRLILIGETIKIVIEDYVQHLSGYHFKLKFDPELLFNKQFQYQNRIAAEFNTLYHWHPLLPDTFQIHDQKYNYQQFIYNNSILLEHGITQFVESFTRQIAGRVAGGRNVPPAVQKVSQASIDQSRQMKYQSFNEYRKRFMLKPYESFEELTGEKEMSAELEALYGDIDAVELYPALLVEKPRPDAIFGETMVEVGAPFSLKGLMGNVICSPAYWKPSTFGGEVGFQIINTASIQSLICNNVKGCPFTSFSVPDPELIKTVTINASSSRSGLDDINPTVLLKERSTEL

[4] = target: Prostaglandin G/H synthase 1 (Homo sapiens, UniProt P23219); assay: Inhibition of COX-1 (unknown origin) by enzyme immune assay
Sequence of Prostaglandin G/H synthase 1 (P23219 whole entry): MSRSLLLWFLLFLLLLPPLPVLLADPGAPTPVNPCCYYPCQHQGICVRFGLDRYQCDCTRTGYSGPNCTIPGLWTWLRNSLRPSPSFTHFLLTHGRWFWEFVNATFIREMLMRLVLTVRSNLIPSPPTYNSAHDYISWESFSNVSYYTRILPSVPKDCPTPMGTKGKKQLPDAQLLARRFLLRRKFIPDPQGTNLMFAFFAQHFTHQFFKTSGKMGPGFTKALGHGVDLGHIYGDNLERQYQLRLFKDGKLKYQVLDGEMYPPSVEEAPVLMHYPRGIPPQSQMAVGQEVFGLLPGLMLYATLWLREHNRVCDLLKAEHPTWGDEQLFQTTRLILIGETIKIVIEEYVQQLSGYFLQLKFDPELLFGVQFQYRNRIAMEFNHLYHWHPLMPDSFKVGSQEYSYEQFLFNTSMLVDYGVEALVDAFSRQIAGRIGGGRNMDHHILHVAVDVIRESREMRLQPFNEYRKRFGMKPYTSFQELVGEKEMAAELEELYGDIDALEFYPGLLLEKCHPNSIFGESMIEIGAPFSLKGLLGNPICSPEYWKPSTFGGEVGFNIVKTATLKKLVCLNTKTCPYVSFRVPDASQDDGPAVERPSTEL

[5] = target: T2, Polyunsaturated fatty acid 5-lipoxygenase (Homo sapiens, UniProt P09917); assay: Inhibition of human 5-LOX by colorimetric assay
T2 sequence (P09917 whole entry): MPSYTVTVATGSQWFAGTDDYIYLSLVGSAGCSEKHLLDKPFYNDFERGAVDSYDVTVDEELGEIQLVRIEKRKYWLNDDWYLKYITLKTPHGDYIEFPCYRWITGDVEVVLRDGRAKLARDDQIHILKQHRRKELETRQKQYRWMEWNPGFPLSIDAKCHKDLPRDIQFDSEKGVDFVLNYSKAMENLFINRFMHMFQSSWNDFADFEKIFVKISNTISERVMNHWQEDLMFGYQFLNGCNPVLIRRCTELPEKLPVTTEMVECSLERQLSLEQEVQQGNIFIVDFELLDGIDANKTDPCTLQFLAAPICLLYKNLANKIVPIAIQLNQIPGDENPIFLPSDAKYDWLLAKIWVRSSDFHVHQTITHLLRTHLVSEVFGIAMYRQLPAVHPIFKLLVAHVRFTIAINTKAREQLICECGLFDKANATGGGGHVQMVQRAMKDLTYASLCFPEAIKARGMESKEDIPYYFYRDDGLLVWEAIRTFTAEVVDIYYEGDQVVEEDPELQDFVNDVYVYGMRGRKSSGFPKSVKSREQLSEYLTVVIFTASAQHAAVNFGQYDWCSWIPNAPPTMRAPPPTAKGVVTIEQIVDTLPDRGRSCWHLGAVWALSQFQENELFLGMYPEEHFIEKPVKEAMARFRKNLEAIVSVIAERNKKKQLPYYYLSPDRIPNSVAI

[6] = target: T1, Prostaglandin G/H synthase 2; assay: Inhibition of COX-2 (unknown origin) by colorimetric method

SMILES | IC50 [1] [µg/mL] | IC50 [2] [µg/mL] | pIC50 [3] | pIC50 [4] | pIC50 [5] | pIC50 [6]
C=C1CC[C@@H]2[C@H](CC2(C)C)C(=C)CC[C@H]1O | 52.5 (≈ 238 µM) | 82 (≈ 372 µM) | 3.40 | 3.40 |  | 
O=C1/C(=C/c2ccc(Cl)cc2)N=C(c2ccccc2)N1c1ccc(-c2nc3ccccc3o2)cc1 |  |  |  |  | 7.70 | 6.60
